From patent US10829438B2, “Neprilysin inhibitors” (THERAVANCE BIOPHARMA R&D IP, LLC, priority 2012, dated 2020)

Target: human NEP (Homo sapiens (Human), UniProt P08473)
Assay: In vitro enzyme inhibition assay at human NEP (fluorogenic peptide substrate)
Type: biochemical
Settings: not given
Description: In Vitro Assays for the Quantitation of Inhibitor Potencies (IC50) at Human and Rat NEP, and Human ACE
The inhibitory activities of compounds at human and rat neprilysin (EC 3.4.24.11; NEP) and human angiotensin converting enzyme (ACE) were determined using in vitro assays as described below.
Recombinant human NEP and recombinant human ACE were obtained commercially (R&D Systems, Minneapolis, Minn., catalog numbers 1182-ZN and 929-ZN, respectively). The fluorogenic peptide substrate Mca-D-Arg-Arg-Leu-Dap-(Dnp)-OH (Medeiros et al. (1997) Braz. J. Med. Biol. Res. 30:1157-62; Anaspec, San Jose, Calif.) and Abz-Phe-Arg-Lys(Dnp)-Pro-OH (Araujo et al. (2000) Biochemistry 39:8519-8525; Bachem, Torrance, Calif.) were used in the NEP and ACE assays respectively.
The assays were performed in 384-well white opaque plates at 37° C. using the fluorogenic peptide substrates at a concentration of 10 μM in Assay Buffer (NEP: 50 mM HEPES, pH 7.5, 100 mM NaCl, 0.01% polyethylene glycol sorbitan monolaurate (Tween-20), 10 μM ZnSO4; ACE: 50 mM HEPES, pH 7.5, 100 mM NaCl, 0.01% Tween-20, 1 μM ZnSO4).
Test compounds were assayed over the range of concentrations from […] to 20 μM. Test compounds were added to the enzymes and incubated for 30 minute at 37° C. prior to initiating the reaction by the addition of substrate. Reactions were terminated after 20 minutes of incubation at 37° C. by the addition of glacial acetic acid to a final concentration of 3.6% (v/v).
Plates were read on a fluorometer with excitation and emission wavelengths set to 320 nm and 405 nm, respectively. Inhibition constants were obtained by nonlinear regression of the data using the equation (GraphPad Software, Inc., San Diego, Calif.): v=v0/[1+(I/K′)] where v is the reaction rate, v0 is the uninhibited reaction rate, I is the inhibitor concentration and K′ is the apparent inhibition constant.

human NEP, sequence (P08473 52-750): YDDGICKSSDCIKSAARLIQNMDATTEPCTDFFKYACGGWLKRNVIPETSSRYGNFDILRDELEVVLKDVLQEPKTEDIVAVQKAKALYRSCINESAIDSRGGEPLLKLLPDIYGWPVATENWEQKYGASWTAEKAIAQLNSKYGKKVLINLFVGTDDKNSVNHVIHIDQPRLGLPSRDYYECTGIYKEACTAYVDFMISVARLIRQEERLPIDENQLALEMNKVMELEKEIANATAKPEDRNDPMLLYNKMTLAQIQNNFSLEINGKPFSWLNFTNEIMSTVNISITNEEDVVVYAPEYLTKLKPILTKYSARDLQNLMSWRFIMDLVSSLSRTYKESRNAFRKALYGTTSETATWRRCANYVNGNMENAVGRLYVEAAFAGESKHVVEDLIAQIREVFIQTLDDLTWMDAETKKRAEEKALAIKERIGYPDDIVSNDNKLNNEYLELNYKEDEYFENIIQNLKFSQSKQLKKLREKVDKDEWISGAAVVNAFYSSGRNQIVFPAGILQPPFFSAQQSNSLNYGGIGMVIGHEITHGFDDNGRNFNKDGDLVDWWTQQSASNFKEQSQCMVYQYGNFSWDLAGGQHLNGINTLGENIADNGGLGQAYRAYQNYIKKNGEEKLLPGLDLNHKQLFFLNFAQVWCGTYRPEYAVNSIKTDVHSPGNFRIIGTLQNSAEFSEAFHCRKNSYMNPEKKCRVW

Row | SMILES | Ki
1 | O=C(N[C@H](Cc1ccc(-c2cccc(Cl)c2)cc1)C[C@@H](O)C(=O)O)c1ccc2nnn(OCc3ccccc3)c2c1 [Example 1I, (2R,4R)-4-[(3-Benzyloxy-3H-benzotriazole-5-carbonyl)amino]-5-(3′-chlorobiphenyl-4-yl)-2-hydroxypentanoic Acid] | 12.6 to 100 nM

Same assay, conditions: recombinant human NEP; 30 minute pre-incubation at 37° C.; fluorogenic substrate 10 μM

Row | SMILES | pKi value at human NEP
2 | O=C(N[C@H](Cc1ccc(-c2cccc(Cl)c2)cc1)C[C@@H](O)C(=O)O)c1cc(-c2ccccc2F)no1 [Example 6A, (2R,4R)-5-(3′-Chlorobiphenyl-4-yl)-4-{[3-(2-fluorophenyl)isoxazole-5-carbonyl]amino}-2-hydroxypentanoic Acid] | ≥9.0
3 | CC(=O)OCOn1nnc2ccc(C(=O)N[C@H](Cc3ccc(-c4cccc(Cl)c4)cc3)C[C@@H](O)C(=O)O)cc21 [Example 1G, (2R,4R)-4-[(3-Acetoxymethoxy-3H-benzotriazole-5-carbonyl)amino]-5-(3′-chlorobiphenyl-4-yl)-2-hydroxypentanoic Acid] | ≥9.0
4 | CC(C)[C@@H](N)C(=O)OCOn1nnc2ccc(C(=O)N[C@H](Cc3ccc(-c4cccc(Cl)c4)cc3)C[C@@H](O)C(=O)O)cc21 [Example 1L, (2R,4R)-4-{[3-((R)-2-Amino-3-methylbutyryloxymethoxy)-3H-benzotriazole-5-carbonyl]amino}-5-(3′-chlorobiphenyl-4-yl)-2-hydroxy-pentanoic Acid] | ≥9.0

Same assay, conditions: recombinant human NEP; 30 minute pre-incubation at 37° C.; fluorogenic substrate 10 μM; read-out: pKi value at human NEP (converted)

Row | SMILES | Ki
5 | CC(=O)c1cc(C(=O)N[C@H](Cc2ccc(-c3ccccc3)cc2)C[C@@H](O)C(=O)O)[nH]n1 [formula X′, (2R,4R)-4-[(5-acetyl-2H-pyrazole-3-carbonyl)amino]-5-biphenyl-4-yl-2-hydroxypentanoic acid] | ≤ 1 nM
6 | O=C(N[C@H](Cc1ccc(-c2cc(Cl)ccc2F)cc1)C[C@@H](O)C(=O)O)c1cn(O)nn1 [Example 8A, (2R,4R)-5-(5′-Chloro-2′-fluorobiphenyl-4-yl)-2-hydroxy-4-[(1-hydroxy-1H-[1,2,3]triazole-4-carbonyl)amino]pentanoic Acid] | ≤ 1 nM
7 | O=C(N[C@H](Cc1ccc(-c2cccc(Cl)c2)cc1)C[C@@H](O)C(=O)O)c1cc(O)n(-c2ccccn2)n1 [Example 3A, (2R,4R)-5-(3′-Chlorobiphenyl-4-yl)-2-hydroxy-4-[(5-hydroxy-1-pyridin-2-yl-1H-pyrazole-3-carbonyl)amino]pentanoic Acid] | ≤ 1 nM
8 | O=C(N[C@H](Cc1ccc(-c2cccc(Cl)c2)cc1)C[C@@H](O)C(=O)O)c1nn(-c2ccccc2)c(=O)[nH]1 [Example 9A, (2R,4R)-5-(3′-Chlorobiphenyl-4-yl)-2-hydroxy-4-[(5-oxo-1-phenyl-4,5-dihydro-1H-[1,2,4]triazole-3-carbonyl)amino]pentanoic Acid] | ≤ 1 nM
9 | CC(=O)c1cc(C(=O)N[C@H](Cc2ccc(-c3cccc(Cl)c3)cc2)C[C@@H](O)C(=O)O)n[nH]1 [Example 5B, (2R,4R)-4-[(5-Acetyl-1H-pyrazole-3-carbonyl)amino]-5-(3′-chlorobiphenyl-4-l)-2-hydroxypentanoic Acid] | ≤ 1 nM
10 | CC(=O)c1cc(C(=O)N[C@H](Cc2ccc(-c3cc(Cl)ccc3F)cc2)C[C@@H](O)C(=O)O)n[nH]1 [Example 4B, (2R,4R)-4-[(5-Acetyl-1H-pyrazole-3-carbonyl)amino]-5-(5′-chloro-2′-fluorobiphenyl-4-yl)-2-hydroxypentanoic Acid] | ≤ 1 nM
11 | COc1cc(C(=O)N[C@H](Cc2ccc(-c3cccc(Cl)c3)cc2)C[C@@H](O)C(=O)O)on1 [Example 7A, (2R,4R)-5-(3′-Chlorobiphenyl-4-yl)-2-hydroxy-4-[(3-methoxyisoxazole-5-carbonyl)amino]pentanoic Acid] | ≤ 1 nM
12 | Cn1nc(C(=O)N[C@H](Cc2ccc(-c3cccc(Cl)c3)cc2)C[C@@H](O)C(=O)O)cc1O [Example 2A, (2R,4R)-5-(3′-Chlorobiphenyl-4-yl)-2-hydroxy-4-[(5-hydroxy-1-methyl-1H-pyrazole-3-carbonyl)amino]pentanoic Acid] | ≤ 1 nM
13 | O=C(N[C@H](Cc1ccc(-c2cccc(Cl)c2)cc1)C[C@@H](O)C(=O)O)c1ccc2nnn(O)c2c1 [Example 1A, (2R,4R)-5-(3′-Chlorobiphenyl-4-yl)-2-hydroxy-4-[(3-hydroxy-3H-benzotriazole-5-carbonyl)amino]pentanoic Acid] | ≤ 1 nM
14 | CCCC(=O)OCOn1nnc2ccc(C(=O)N[C@H](Cc3ccc(-c4cccc(Cl)c4)cc3)C[C@@H](O)C(=O)O)cc21 [Example 1M, (2R,4R)-4-[(3-Butyryloxymethoxy-3H-benzotriazole-5-carbonyl)amino]-5-(3′-chlorobiphenyl-4-yl)-2-hydroxypentanoic Acid] | 1.26 to 10 nM
